Experimental data: patent US20100240683A1, “COMBINATION THERAPY, COMPOSITION AND METHODS FOR THE TREATMENT OF CARDIOVASCULAR DISORDERS” (Syndromex Ltd., priority 2007, published 2010)
Entries after “also recorded” stand apart in the source; their conditions may differ.

Experiments:
CYP2C9 = CYP2C9 (Homo sapiens, UniProt P11712); experiment: in vitro
CYP2C8 = target: T1, CYP2C8 (Homo sapiens, UniProt P10632); experiment: biochemical
T1 sequence (P10632 1-490): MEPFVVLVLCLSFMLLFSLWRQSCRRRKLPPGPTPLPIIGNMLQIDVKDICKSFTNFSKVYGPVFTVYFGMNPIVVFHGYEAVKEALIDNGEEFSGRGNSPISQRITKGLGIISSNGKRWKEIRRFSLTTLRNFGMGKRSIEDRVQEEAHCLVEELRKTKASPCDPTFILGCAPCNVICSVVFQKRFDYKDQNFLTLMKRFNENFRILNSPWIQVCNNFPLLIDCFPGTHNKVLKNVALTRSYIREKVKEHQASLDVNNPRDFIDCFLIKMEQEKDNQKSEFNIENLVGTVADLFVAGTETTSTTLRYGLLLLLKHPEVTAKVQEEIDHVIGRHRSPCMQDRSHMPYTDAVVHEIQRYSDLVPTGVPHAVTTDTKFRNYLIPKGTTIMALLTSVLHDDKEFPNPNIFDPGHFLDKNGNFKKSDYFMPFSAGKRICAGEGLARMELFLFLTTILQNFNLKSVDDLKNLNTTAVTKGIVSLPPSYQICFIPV

Guinea pigs = experiment: Hypolipidemic effect in Guinea pigs model (plasma TG, cholesterol, lipoproteins); assay type: in vivo, Guinea pig; settings: for effect on plasma cholesterol / effect on plasma triglycerides (TG): gavage, days 21 and 22, result in words
Experimental: • Guinea pigs (400-500 g) were obtained from Harlan (Israel) or Harlan (Netherlands). Animals were treated by gavage with Medica 16αα, Medica 16ββ and Simvastatin as indicated in 1% CMC for the specified treatment periods. During treatment period the animals were weighed and observed daily.
Non-fasted guinea pigs were anesthetized with ketamine (75 mg/kg body weight) and xylazine (6 mg/kg body weight), followed by S.C. abdominal injections of 2% lignocaine. Anesthetized animals were bled into tubes containing EDTA. Plasma chylomicrons were removed by centrifugation (20 min, 30K rpm, TST 55.5 rotor). Plasma TG was assayed by Roche/Hitachi kit. Plasma cholesterol was assayed by Roche Diagnostic's kit.
Chylomicrons-free plasma was subjected to continuous KBr-gradient centrifugation (24 h, 40K rpm, SW41 rotor), followed by fractionating gradient tubes into 0.5 ml fractions. TG, cholesterol and protein of each fraction were measured as described above. […]
Guinea pigs were treated by gavage with M16αα, M16ββ or with Simvastatin, weighed and observed daily. Plasma triglycerides (TG) and cholesterol, as well as plasma lipoproteins and their composition were examined on days 21 and 22 (as specified in the following tables) of the experiments, as described in Experimental procedures. As clearly shown by Table 3 and FIG. 1, treatment with M16αα decreases plasma triglycerides (TG).

CYP3A4 = CYP3A4 (Homo sapiens, UniProt P08684); experiment: in vitro
Sequence of CYP3A4 (P08684 whole entry): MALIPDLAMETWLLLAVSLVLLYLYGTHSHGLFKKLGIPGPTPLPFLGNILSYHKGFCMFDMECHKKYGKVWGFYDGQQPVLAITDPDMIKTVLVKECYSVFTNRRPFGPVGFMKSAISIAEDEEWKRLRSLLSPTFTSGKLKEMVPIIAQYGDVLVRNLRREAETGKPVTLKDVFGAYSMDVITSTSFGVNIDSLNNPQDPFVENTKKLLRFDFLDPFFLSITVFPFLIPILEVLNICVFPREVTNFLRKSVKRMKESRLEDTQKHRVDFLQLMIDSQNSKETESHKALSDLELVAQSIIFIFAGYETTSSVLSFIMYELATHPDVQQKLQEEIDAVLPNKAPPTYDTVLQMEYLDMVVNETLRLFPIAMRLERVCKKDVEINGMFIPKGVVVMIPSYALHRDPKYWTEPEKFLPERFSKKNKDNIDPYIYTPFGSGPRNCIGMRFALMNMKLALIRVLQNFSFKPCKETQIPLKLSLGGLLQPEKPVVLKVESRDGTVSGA

CYP2B6 [1] = target: T2, CYP2B6 (Homo sapiens, UniProt P20813); experiment: in vitro
T2 sequence (P20813 1-491): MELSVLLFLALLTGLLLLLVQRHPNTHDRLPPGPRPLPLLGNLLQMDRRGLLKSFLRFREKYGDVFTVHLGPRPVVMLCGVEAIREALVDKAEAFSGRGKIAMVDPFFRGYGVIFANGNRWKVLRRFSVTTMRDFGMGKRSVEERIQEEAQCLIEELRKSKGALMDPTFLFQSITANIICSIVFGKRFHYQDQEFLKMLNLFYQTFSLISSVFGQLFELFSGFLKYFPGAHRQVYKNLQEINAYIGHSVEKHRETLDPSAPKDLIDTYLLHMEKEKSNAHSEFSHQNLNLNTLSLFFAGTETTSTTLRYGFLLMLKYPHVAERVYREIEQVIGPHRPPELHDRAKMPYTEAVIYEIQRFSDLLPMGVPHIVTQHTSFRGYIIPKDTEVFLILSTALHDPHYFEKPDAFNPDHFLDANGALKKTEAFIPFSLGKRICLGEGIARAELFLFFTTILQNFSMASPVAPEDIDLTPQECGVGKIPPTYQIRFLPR

CYP2B6 [2] = target: T2, CYP2B6; experiment: Fluorimetric CYP inhibition assay, CYP2B6-EFC
[3] = gavage 10 mg/kgbw, 21 days, n = 12
[4] = gavage 24 mg/kg/bw, 22 days, n = 10

Sequence of CYP2C9 (P11712 whole entry): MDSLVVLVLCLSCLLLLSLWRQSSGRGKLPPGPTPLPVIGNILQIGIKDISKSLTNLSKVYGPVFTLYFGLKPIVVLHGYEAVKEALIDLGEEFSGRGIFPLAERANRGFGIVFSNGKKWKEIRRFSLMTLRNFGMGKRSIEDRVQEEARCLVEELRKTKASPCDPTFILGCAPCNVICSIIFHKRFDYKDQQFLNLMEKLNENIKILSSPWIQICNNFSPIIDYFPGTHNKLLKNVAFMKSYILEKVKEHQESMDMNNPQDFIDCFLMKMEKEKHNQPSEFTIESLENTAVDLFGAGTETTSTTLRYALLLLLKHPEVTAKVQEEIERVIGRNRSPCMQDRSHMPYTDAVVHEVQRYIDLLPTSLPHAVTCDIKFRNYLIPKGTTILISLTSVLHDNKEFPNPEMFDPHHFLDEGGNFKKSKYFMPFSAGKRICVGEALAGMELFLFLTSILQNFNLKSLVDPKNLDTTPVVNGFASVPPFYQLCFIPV

SMILES: CC(C)(CCCCCCCCCCCCC(C)(C)C(=O)O)C(=O)O [M16αα, 2,2,15,15-tetramethylhexadecane-1,16-dioic acid]
- inhibition at 0.05 μM (CYP2C9; % Inhibition (set 1)): 4%
- inhibition at 0.41 μM (CYP2C9; % Inhibition (set 1)): 5%
- inhibition at 1.23 μM (CYP2C9; % Inhibition (set 1)): 2%
- inhibition at 3.7 μM (CYP2C9; % Inhibition (set 1)): 6%
- inhibition at 11.11 μM (CYP2C9; % Inhibition (set 1)): 15%
- inhibition at 33.33 μM (CYP2C9; % Inhibition (set 1)): 15%
- inhibition at 100 μM (CYP2C9; % Inhibition (set 1)): 29%
- inhibition at 0.05 μM (CYP2C9; % Inhibition (set 2)): 0%
- inhibition at 0.41 μM (CYP2C9; % Inhibition (set 2)): 5%
- inhibition at 1.23 μM (CYP2C9; % Inhibition (set 2)): 9%
- inhibition at 3.7 μM (CYP2C9; % Inhibition (set 2)): 0%
- inhibition at 11.11 μM (CYP2C9; % Inhibition (set 2)): 7%
- inhibition at 33.33 μM (CYP2C9; % Inhibition (set 2)): 14%
- inhibition at 100 μM (CYP2C9; % Inhibition (set 2)): 31%
- IC50 (CYP2C8): > 100 µM
- Liver/body weight % (Guinea pigs; [3]): 6.3 ± 0.1%
- Weight gain (Guinea pigs; [3]): 201 ± 8 g
- effect on plasma cholesterol (Guinea pigs): pronounced decrease
- effect on plasma triglycerides (TG) (Guinea pigs): reduces; also recorded: decreases
- effect on LDL-cholesterol levels (Guinea pigs; lipoprotein profile, FIG. 2, result in words): reduces
- inhibition at 0.41 μM (CYP3A4; % Inhibition (set 1)): 3%
- inhibition at 100 μM (CYP3A4; % Inhibition (set 1)): 23%
- inhibition at 1.23 μM (CYP3A4; % Inhibition (set 2)): 0%
- inhibition at 3.7 μM (CYP3A4; % Inhibition (set 2)): 0%
- inhibition at 100 μM (CYP3A4; % Inhibition (set 2)): 19%
- inhibition at 0.05 μM (CYP2B6 [1]; % Inhibition (set 1)): 0%
- inhibition at 0.41 μM (CYP2B6 [1]; % Inhibition (set 1)): 7%
- inhibition at 1.23 μM (CYP2B6 [1]; % Inhibition (set 1)): 4%
- inhibition at 3.7 μM (CYP2B6 [1]; % Inhibition (set 1)): 29%
- inhibition at 11.11 μM (CYP2B6 [1]; % Inhibition (set 1)): 8%
- inhibition at 33.33 μM (CYP2B6 [1]; % Inhibition (set 1)): 17%
- inhibition at 100 μM (CYP2B6 [1]; % Inhibition (set 1)): 27%
- inhibition at 0.05 μM (CYP2B6 [1]; % Inhibition (set 2)): 2%
- inhibition at 0.41 μM (CYP2B6 [1]; % Inhibition (set 2)): 0%
- inhibition at 1.23 μM (CYP2B6 [1]; % Inhibition (set 2)): 3%
- inhibition at 3.7 μM (CYP2B6 [1]; % Inhibition (set 2)): 2%
- inhibition at 11.11 μM (CYP2B6 [1]; % Inhibition (set 2)): 8%
- inhibition at 33.33 μM (CYP2B6 [1]; % Inhibition (set 2)): 12%
- inhibition at 100 μM (CYP2B6 [1]; % Inhibition (set 2)): 28%
- IC50 (CYP2B6 [2]): > 100 µM

SMILES: CC(C)(CCCCCCCCCCC(C)(C)CC(=O)O)CC(=O)O [M16ββ, 3,3,14,14-tetramethylhexadecane-1,16-dioic acid]
- inhibition at 0.05 μM (CYP2C9; % Inhibition (set 1)): 0%
- inhibition at 0.41 μM (CYP2C9; % Inhibition (set 1)): 0%
- inhibition at 1.23 μM (CYP2C9; % Inhibition (set 1)): 3%
- inhibition at 3.7 μM (CYP2C9; % Inhibition (set 1)): 13%
- inhibition at 11.11 μM (CYP2C9; % Inhibition (set 1)): 19%
- inhibition at 33.33 μM (CYP2C9; % Inhibition (set 1)): 34%
- inhibition at 100 μM (CYP2C9; % Inhibition (set 1)): 50%
- inhibition at 0.05 μM (CYP2C9; % Inhibition (set 2)): 0%
- inhibition at 0.41 μM (CYP2C9; % Inhibition (set 2)): 3%
- inhibition at 1.23 μM (CYP2C9; % Inhibition (set 2)): 10%
- inhibition at 3.7 μM (CYP2C9; % Inhibition (set 2)): 8%
- inhibition at 11.11 μM (CYP2C9; % Inhibition (set 2)): 18%
- inhibition at 33.33 μM (CYP2C9; % Inhibition (set 2)): 26%
- inhibition at 100 μM (CYP2C9; % Inhibition (set 2)): 44%
- IC50 (CYP2C8): > 100 µM
- Liver/body weight % (Guinea pigs; [4]): 5.8 ± 0.2%
- Plasma cholesterol (Guinea pigs; [4]): 31 ± 2.2 mg %
- Weight gain (Guinea pigs; [4]): 173 ± 8.5 g
- effect on plasma cholesterol (Guinea pigs): small but significant decrease
- effect on plasma triglycerides (TG) (Guinea pigs): clear decrease
- inhibition at 0.05 μM (CYP3A4; % Inhibition (set 1)): 0%
- inhibition at 0.41 μM (CYP3A4; % Inhibition (set 1)): 0%
- inhibition at 0.41 μM (CYP3A4; % Inhibition (set 2)): 0%
- inhibition at 100 μM (CYP3A4; % Inhibition (set 2)): 15%
- inhibition at 0.05 μM (CYP2B6 [1]; % Inhibition (set 1)): 1%
- inhibition at 0.41 μM (CYP2B6 [1]; % Inhibition (set 1)): 1%
- inhibition at 1.23 μM (CYP2B6 [1]; % Inhibition (set 1)): 4%
- inhibition at 3.7 μM (CYP2B6 [1]; % Inhibition (set 1)): 0%
- inhibition at 11.11 μM (CYP2B6 [1]; % Inhibition (set 1)): 5%
- inhibition at 33.33 μM (CYP2B6 [1]; % Inhibition (set 1)): 7%
- inhibition at 100 μM (CYP2B6 [1]; % Inhibition (set 1)): 20%
- inhibition at 0.05 μM (CYP2B6 [1]; % Inhibition (set 2)): 0%
- inhibition at 0.41 μM (CYP2B6 [1]; % Inhibition (set 2)): 0%
- inhibition at 1.23 μM (CYP2B6 [1]; % Inhibition (set 2)): 4%
- inhibition at 3.7 μM (CYP2B6 [1]; % Inhibition (set 2)): 0%
- inhibition at 11.11 μM (CYP2B6 [1]; % Inhibition (set 2)): 6%
- inhibition at 33.33 μM (CYP2B6 [1]; % Inhibition (set 2)): 7%
- inhibition at 100 μM (CYP2B6 [1]; % Inhibition (set 2)): 19%
- IC50 (CYP2B6 [2]): > 100 µM
